PMC10620772, “Design, synthesis, and biological evaluation of new pyrimidine-5-carbonitrile derivatives as novel anti-cancer, dual EGFR^WT/COX-2 inhibitors with docking studies” (RSC Advances, 2023)

Key:
[1] = test system: NCI-H226; assay: NCI60 antitumor screening; type: cell-based, human; conditions: Homo sapiens; 10 μM single dose; NCI-H226 (non-small cell lung cancer); read-out: growth inhibition percent (GI%)
[2] = test system: HCT-116; assay: NCI60 antitumor screening; type: cell-based, human; conditions: Homo sapiens; 10 μM single dose; HCT-116 (colon cancer); read-out: growth inhibition percent (GI%)
[3] = test system: SW-620; assay: NCI60 antitumor screening; type: cell-based, human; conditions: Homo sapiens; 10 μM single dose; SW-620 (colon cancer); read-out: growth inhibition percent (GI%)
[4] = test system: NCI-H23; assay: NCI60 antitumor screening; type: cell-based, human; conditions: Homo sapiens; 10 μM single dose; NCI-H23 (non-small cell lung cancer); read-out: growth inhibition percent (GI%)
[5] = test system: BT-549; assay: NCI60 antitumor screening; type: cell-based, human; conditions: Homo sapiens; 10 μM single dose; BT-549 (breast cancer); read-out: growth inhibition percent (GI%)
[6] = test system: SK-MEL-2; assay: NCI60 antitumor screening; type: cell-based, human; conditions: Homo sapiens; 10 μM single dose; SK-MEL-2 (melanoma); read-out: growth inhibition percent (GI%)
[7] = test system: RPMI-8226; assay: NCI60 antitumor screening; type: cell-based, human; conditions: Homo sapiens; 10 μM single dose; RPMI-8226 (leukaemia); read-out: growth inhibition percent (GI%)
[8] = test system: DU-145; assay: NCI60 antitumor screening; type: cell-based, human; conditions: Homo sapiens, DU-145; read-out: growth inhibition percent (GI%)
[9] = test system: NCI60 cell lines panel; assay: NCI60 antitumor screening, full panel; type: cell-based, human; conditions: Homo sapiens; 10 μM single dose; mean over NCI60 cell lines; read-out: Mean growth inhibition percent (GI%)
How it was run: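 Single-concentration screen at 10 μM across the NCI60 panel (leukaemia, NSCLC, colon, CNS, melanoma, ovarian, renal, prostate, breast). Results are expressed as percent growth inhibition (GI%) of treated lines.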

[10] = test system: UACC-62; assay: NCI60 antitumor screening; type: cell-based, human; conditions: Homo sapiens; 10 μM single dose; UACC-62 (melanoma); read-out: growth inhibition percent (GI%)
[11] = test system: RXF 393; assay: NCI60 antitumor screening; type: cell-based, human; conditions: Homo sapiens; 10 μM single dose; RXF 393 (renal cancer); read-out: growth inhibition percent (GI%)
[12] = test system: SK-OV-3; assay: NCI60 antitumor screening; type: cell-based, human; conditions: Homo sapiens; 10 μM single dose; SK-OV-3 (ovarian cancer); read-out: growth inhibition percent (GI%)
[13] = test system: UO-31; assay: NCI60 antitumor screening; type: cell-based, human; conditions: Homo sapiens; 10 μM single dose; UO-31 (renal cancer); read-out: growth inhibition percent (GI%)
[14] = test system: SK-MEL-28; assay: NCI60 antitumor screening; type: cell-based, human; conditions: Homo sapiens; 10 μM single dose; SK-MEL-28 (melanoma); read-out: growth inhibition percent (GI%)
[15] = test system: HOP-92; assay: NCI60 antitumor screening; type: cell-based, human; conditions: Homo sapiens; 10 μM single dose; HOP-92 (non-small cell lung cancer); read-out: growth inhibition percent (GI%)
[16] = test system: NCI/ADR-RES; assay: NCI60 antitumor screening; type: cell-based, human; conditions: Homo sapiens; 10 μM single dose; NCI/ADR-RES (ovarian cancer); read-out: growth inhibition percent (GI%)
[17] = test system: HCC-2998; assay: NCI60 antitumor screening; type: cell-based, human; conditions: Homo sapiens; 10 μM single dose; HCC-2998 (colon cancer); read-out: growth inhibition percent (GI%)
[18] = test system: OVCAR-8; assay: NCI60 antitumor screening; type: cell-based, human; conditions: Homo sapiens; 10 μM single dose; OVCAR-8 (ovarian cancer); read-out: growth inhibition percent (GI%)
[19] = test system: COLO 205; assay: NCI60 antitumor screening; type: cell-based, human; conditions: Homo sapiens; 10 μM single dose; COLO 205 (colon cancer); read-out: growth inhibition percent (GI%)
[20] = test system: EKVX; assay: NCI60 antitumor screening; type: cell-based, human; conditions: Homo sapiens; 10 μM single dose; EKVX (non-small cell lung cancer); read-out: growth inhibition percent (GI%)
[21] = test system: LOX IMVI; assay: NCI60 antitumor screening; type: cell-based, human; conditions: Homo sapiens; 10 μM single dose; LOX IMVI (melanoma); read-out: growth inhibition percent (GI%)
[22] = test system: OVCAR-4; assay: NCI60 antitumor screening; type: cell-based, human; conditions: Homo sapiens; 10 μM single dose; OVCAR-4 (ovarian cancer); read-out: growth inhibition percent (GI%)
[23] = test system: MDA-MB-231/ATCC; assay: NCI60 antitumor screening; type: cell-based, human; conditions: Homo sapiens; 10 μM single dose; MDA-MB-231/ATCC (breast cancer); read-out: growth inhibition percent (GI%)
[24] = test system: SR; assay: NCI60 antitumor screening; type: cell-based, human; conditions: Homo sapiens; 10 μM single dose; SR (leukaemia); read-out: growth inhibition percent (GI%)

Row | SMILES | inhibition at 10 µM [1] | inhibition at 10 µM [2] | inhibition at 10 µM [3] | inhibition at 10 µM [4] | inhibition at 10 µM [5] | inhibition at 10 µM [6] | inhibition at 10 µM [7] | inhibition at 10 µM [8] | inhibition at 10 µM [9] | inhibition at 10 µM [10] | melting point | inhibition at 10 µM [11] | inhibition at 10 µM [12] | inhibition at 10 µM [13] | inhibition at 10 µM [14] | inhibition at 10 µM [15] | inhibition at 10 µM [16] | inhibition at 10 µM [17] | inhibition at 10 µM [18] | inhibition at 10 µM [19] | also measured
1 | N#Cc1c(-c2ccc(F)cc2)nc(SCc2ccc(F)cc2)nc1N1CCN(c2ccccc2)CC1 [4n, 2-((4-Fluorobenzyl)thio)-4-(4-fluorophenyl)-6-(4-phenylpiperazin-1-yl)pyrimidine-5-carbonitrile] | < 10% | 11.8% | < 10% | < 10% | < 10% | 10.6% | 22.3% | < 10% | < 10% | 25.8% | 180 to 182 °C | < 10% | < 10% | < 10% | < 10% | < 10% | < 10% | < 10% | < 10% | < 10% | inhibition at 10 µM [20]: 18.7%; inhibition at 10 µM [21]: < 10%; inhibition at 10 µM [22]: 10.4%
2 | N#Cc1c(-c2ccc(F)cc2)nc(SCc2ccccc2)nc1N1CCN(c2ccccc2)CC1 [4m, 2-(Benzylthio)-4-(4-fluorophenyl)-6-(4-phenylpiperazin-1-yl) pyrimidine-5-carbonitrile] | < 10% | < 10% | < 10% | < 10% | < 10% | < 10% | 14.2% | < 10% | < 10% | 16.2% | 165 to 167 °C | < 10% | < 10% | < 10% | < 10% | < 10% | < 10% | < 10% | < 10% | < 10% | inhibition at 10 µM [20]: < 10%; inhibition at 10 µM [21]: < 10%; inhibition at 10 µM [23]: < 10%; inhibition at 10 µM [24]: < 10%; inhibition at 10 µM [22]: < 10%
3 | Cc1ccc(CSc2nc(-c3ccc(F)cc3)c(C#N)c(N3CCN(c4ccccc4)CC3)n2)cc1 [4p, 4-(4-Fluorophenyl)-2-((4-methylbenzyl)thio)-6-(4-phenylpiperazin-1-yl) pyrimidine-5-carbonitrile] | < 10% | 15.1% | < 10% | < 10% | < 10% | 15.1% | 18.4% | < 10% | < 10% | 29.7% | 145 to 147 °C | < 10% | < 10% | < 10% | < 10% | < 10% | < 10% | < 10% | < 10% | 12.2% | inhibition at 10 µM [20]: 20.3%; inhibition at 10 µM [21]: < 10%; inhibition at 10 µM [22]: 10.6%
4 | N#Cc1c(-c2ccc(F)cc2)nc(SCc2ccc([N+](=O)[O-])cc2)nc1N1CCN(c2ccccc2)CC1 [4o, 4-(4-Fluorophenyl)-2-((4-nitrobenzyl)thio)-6-(4-phenylpiperazin-1-yl)pyrimidine-5-carbonitrile] | < 10% | < 10% | < 10% | < 10% | < 10% | < 10% | 15.3% | < 10% | < 10% | 18.1% | 165 to 167 °C | < 10% | < 10% | < 10% | < 10% | < 10% | < 10% | < 10% | < 10% | < 10% | inhibition at 10 µM [20]: 13.9%; inhibition at 10 µM [21]: < 10%; inhibition at 10 µM [22]: 12.3%
